Assay results: US10597388B2, “Pyridazinone herbicides” (FMC CORPORATION, priority 2014, dated 2020)

Assays:
Assay type in all cases: in vivo
[1] = tested on: ducksalad (Heteranthera limosa); assay: Test B flooded paddy test; settings: 250 g ai/ha, Flood; visual rating on scale of 0 to 100 where 0 is no effect and 100 is complete control; 13 to 15 d after treatment
Method in brief: (§1)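 Plants at the 2-leaf stage were flooded to 3 cm above soil, and test compounds were applied directly into the paddy water, which was held at that depth throughout. After 13 to 15 d in a greenhouse, injury was rated visually against untreated controls on a 0–100 scale (0 no effect, 100 complete control).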

[2] = tested on: rice (Oryza sativa); assay: Test B flooded paddy test; settings: 250 g ai/ha, Flood; visual rating on scale of 0 to 100 where 0 is no effect and 100 is complete control; 13 to 15 d after treatment
Method in brief: as §1

[3] = tested on: sedge, umbrella (small-flower umbrella sedge, Cyperus difformis); assay: Test B flooded paddy test; settings: 250 g ai/ha, Flood; visual rating on scale of 0 to 100 where 0 is no effect and 100 is complete control; 13 to 15 d after treatment
Method in brief: as §1

[4] = tested on: barnyardgrass (Echinochloa crus-galli); assay: Test B flooded paddy test; settings: 250 g ai/ha, Flood; visual rating on scale of 0 to 100 where 0 is no effect and 100 is complete control; 13 to 15 d after treatment
Method in brief: as §1

[5] = tested on: ragweed (common ragweed, Ambrosia elatior); assay: Test A greenhouse herbicide test, pre- and postemergence
Method in brief: (§2)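 Seeds sown in loam–sand blend got a preemergence directed soil spray of compound in non-phytotoxic solvent with surfactant. Postemergence treatment was given at 2–10 cm, one- to two-leaf stage. After ~10 d in greenhouse, injury was rated visually vs untreated controls, 0 (no effect) to 100 (complete control).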

[6] = tested on: kochia (Kochia scoparia); assay: as above
Method in brief: as §2

[7] = tested on: corn (Zea mays); assay: as above; settings: Postemergence
Method in brief: as §2

[8] = tested on: foxtail, giant (giant foxtail, Setaria faberii); assay: as above
Method in brief: as §2

[9] = tested on: pigweed (Amaranthus retroflexus); assay: as above
Method in brief: as §2

[10] = tested on: ryegrass, Italian (Italian ryegrass, Lolium multiflorum); assay: as above
Method in brief: as §2

[11] = tested on: barnyardgrass (Echinochloa crus-galli); assay: as above
Method in brief: as §2

[12] = tested on: wheat (Triticum aestivum); assay: as above; settings: Postemergence
Method in brief: as §2

[13] = tested on: blackgrass (Alopecurus myosuroides); assay: Test A greenhouse herbicide test, postemergence
Method in brief: (§3)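 Greenhouse postemergence test: formulated chemicals sprayed on one- to two-leaf plants (2 to 10 cm), grown in loam soil blended with sand. Injury assessed visually about 10 d later against untreated controls, scored 0 (no effect) to 100 (complete control).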

[14] = tested on: galium (catchweed bedstraw, Galium aparine); assay: Test A greenhouse herbicide test, postemergence
Method in brief: as §3

[15] = Postemergence, 125 g ai/ha, 0 to 100 scale where 0 is no effect and 100 is complete control
[16] = Postemergence, 500 g ai/ha, visual rating after approx. 10 d, 0 to 100 scale (0 no effect, 100 complete control)
[17] = Preemergence, 500 g ai/ha, 0 to 100 scale where 0 is no effect and 100 is complete control
[18] = Preemergence, 125 g ai/ha, 0 to 100 scale where 0 is no effect and 100 is complete control
[19] = 125 g ai/ha, 0 to 100 scale where 0 is no effect and 100 is complete control
[20] = 500 g ai/ha, visual rating after approx. 10 d, 0 to 100 scale (0 no effect, 100 complete control)
[21] = Postemergence, 125 g ai/ha, 0 to 100 scale, 0 no effect, 100 complete control
[22] = Preemergence, 125 g ai/ha, visual injury rating, 0 to 100 scale (0 no effect, 100 complete control), approx. 10 d
[23] = 125 g ai/ha, 0 to 100 scale, 0 no effect, 100 complete control

Compound | Plant response rating, Ducksalad [1] | Plant response rating, Rice [2] | Plant response rating, Sedge, Umbrella [3] | Plant response rating, Barnyardgrass [4] | Plant response rating, Ragweed [5, 16] | Plant response rating, Ragweed [5, 17] | Plant response rating, Kochia [6, 16] | Plant response rating, Kochia [6, 17] | Plant response rating, Corn [7, 20] | Plant response rating, Foxtail, Giant [8, 16] | Plant response rating, Foxtail, Giant [8, 17] | Plant response rating, Pigweed [9, 16] | Plant response rating, Pigweed [9, 17] | Plant response rating, Ryegrass, Italian [10, 16] | Plant response rating, Ryegrass, Italian [10, 17] | Plant response rating, Barnyardgrass [11, 16] | Plant response rating, Barnyardgrass [11, 17] | Plant response rating, Wheat [12, 20] | Plant response rating, Blackgrass [13, 20] | Plant response rating, Galium [14, 20] | other results
COC(=O)Oc1c(C)nn(C)c(=O)c1-c1c(C(F)(F)F)ccc2ccccc12 [Compound 149] | 0 | 0 | 0 | 0 | 90 | 90 | 100 | 90 | 30 | 80 | 90 | 100 | 100 | 100 | 90 | 20 | 70 | 70 | 70 | 100 | Plant response rating, Ragweed [5, 15]: 90; Plant response rating, Kochia [6, 15]: 80; Kochia plant response rating [6, 18]: 40; Plant response rating, Corn [7, 19]: 20; Plant response rating, Foxtail, Giant [8, 15]: 40; Foxtail, Giant plant response rating [8, 18]: 30; Plant response rating, Pigweed [9, 15]: 90; Pigweed plant response rating [9, 18]: 100; Plant response rating, Ryegrass, Italian [10, 15]: 70; Plant response rating, Barnyardgrass [11, 15]: 20; Barnyardgrass plant response rating [11, 18]: 0; Plant response rating, Wheat [12, 19]: 20; Plant response rating, Blackgrass [13, 19]: 30; Plant response rating, Galium [14, 19]: 90
CCC(=O)Oc1c(Br)nn(C)c(=O)c1-c1c(C)ccc2ccccc12 [Compound 156] | 60 | 0 | 75 | 0 | 100 | 90 | 100 | 100 | 30 | 90 | 90 | 100 | 100 | 100 | 100 | 90 | 100 | 60 | 90 | 100 | Plant response rating, Ragweed [5, 21]: 90; Plant response rating, Ragweed [5, 22]: 90; Plant response rating, Kochia [6, 21]: 80; Plant response rating, Kochia [6, 22]: 50; Plant response rating, Corn [7, 23]: 0; Plant response rating, Foxtail, Giant [8, 21]: 90; Plant response rating, Foxtail, Giant [8, 22]: 80; Plant response rating, Pigweed [9, 21]: 90; Plant response rating, Pigweed [9, 22]: 100; Plant response rating, Ryegrass, Italian [10, 21]: 90; Plant response rating, Ryegrass, Italian [10, 22]: 90; Plant response rating, Barnyardgrass [11, 21]: 70; Plant response rating, Barnyardgrass [11, 22]: 70; Plant response rating, Wheat [12, 23]: 30; Plant response rating, Blackgrass [13, 23]: 60; Plant response rating, Galium [14, 23]: 100
Cc1nn(C)c(=O)c(-c2ccc(Cl)c3ccccc23)c1OS(=O)(=O)C(F)(F)F [Compound 158] | 0 | 20 | 65 | 0 | 100 | 80 | 100 | 40 | 0 | 60 | 40 | 100 | 100 | 100 | 80 | 50 | 60 | 0 | 60 | 90 | Plant response rating, Ragweed [5, 21]: 90; Plant response rating, Ragweed [5, 22]: 50; Plant response rating, Kochia [6, 21]: 90; Plant response rating, Kochia [6, 22]: 30; Plant response rating, Corn [7, 23]: 0; Plant response rating, Foxtail, Giant [8, 21]: 30; Plant response rating, Foxtail, Giant [8, 22]: 10; Plant response rating, Pigweed [9, 21]: 80; Plant response rating, Pigweed [9, 22]: 10; Plant response rating, Ryegrass, Italian [10, 21]: 90; Plant response rating, Ryegrass, Italian [10, 22]: 80; Plant response rating, Barnyardgrass [11, 21]: 10; Plant response rating, Barnyardgrass [11, 22]: 10; Plant response rating, Wheat [12, 23]: 0; Plant response rating, Blackgrass [13, 23]: 50; Plant response rating, Galium [14, 23]: 80
